“Also recorded” adds a separate entry of the source.
Legend:
[1] = system: PPM tumors (Trp53−/−; Pten−/−; c-Myc); assay: Orthotopic PPM tumor growth (bioluminescence); details: mouse, in vivo
Protocol: All animal experiments described in this study were performed according to the animal protocols approved by the DFCI Institutional Animal Care and Use Committee. Brca1^loxP/loxP [FVB/N] mice, bearing loxP sites in introns 4 and 13 of the Brca1 gene, and Trp53^loxP/loxP[FVB/N] mice bearing loxP in introns 2 and 10 of the p53 gene, were obtained from Dr. Jos Jonkers's laboratory (Netherlands Cancer Institute, Amsterdam, The Netherlands). These mice were intercrossed through multiple generations to create a colony of homozygous Trp53^loxP/loxP/Brca1^loxP/loxP double conditional knockout mice. Ovaries were harvested from 8-week-old female Trp53^loxP/loxP/Brca1^loxP/loxP mice. The ovaries were washed twice with phosphate-buffered and incubated in DMEM/F12 (Ham's) medium containing collagenase and dispase (stem cell technologies) for 40 min at 37° C. […]
Single cells were obtained by digestion of primary ovarian tumors in collagenase buffer and then cultured in MOT media (DMEM/F12, 0.6% FBS, 10 ng/ml EGF, hydrocortisone 1 μg/ml, cholera toxin 1 ng/ml, 100 μg/ml penicillin-streptomycin, 5 μM Y27632). […] The endpoints were determined by tumor burden and ascites. […]

PPM cells = assay: Cytosolic dsDNA (PicoGreen) and micronuclei staining, PPM cells; format: cell-based, mouse; details: 2.5 μM, 24 h
Protocol: PBM and PPM cells were cultured on chambered cell culture slides (BD Falcon). Cells were treated with 2.5 μM olaparib or vehicle control (DMSO) for 24 hours. Following the treatment, cells were incubated with culture media containing PicoGreen double-stranded DNA stain (200-fold dilution, Life Technologies). After one-hour incubation, cells were fixed with 4% paraformaldehyde in PBS (Santa Cruz Biotechnology) for 10 minutes. Cells were then washed twice with PBS and stained with 300 nM DAPI (Thermo Fisher Scientific) for 10 minutes. Coverslips were mounted using ProLong Diamond Antifade Mountant (Thermo Fisher Scientific). Staining was imaged using a Leica SP5X laser scanning confocal microscope.

[2] = system: STING pathway in BMDCs co-cultured with ID8 cells; assay: Co-culture of BMDCs with drug-treated WT or Brca1-null ID8 cells; format: cell-based, mouse; details: co-cultured with drug-treated Brca1-null ID8 cells
Protocol: Brca-1 deficient ID8 cells were generated using a CRISPR double nickase plasmid. ID8 cells cultured in a 6-well plate were transfected with 2 μg/well of BRCA1 double nickase plasmid (sc419362-NIC, Santa Cruz Biotechnology) or control double nickase plasmid (SC-437281, Santa Cruz Biotechnology) using lipofectamine 3000 (Invitrogen). 48 hrs post-transfection, cells were passaged onto a 10 cm plate. After 24 h, puromycin (3 μg/mL) was added to the culture for selection. Puromycin resistant cells were selected and expanded. Due to a lack of a reliable mouse BRCA1 antibody for Western blot, cells were analyzed by DNA sequencing to confirm the disruption of functional Brca1 allele. To generate ID8 tumors, cultured ID8 cells were harvested and resuspended in serum free DMEM. Cells were then mixed with Matrigel (Corning). A total volume of 0.1 ml containing 5×10^6 ID8 cells and 40% Matrigel were injected subcutaneously into the flank of C57BL/6J mice.
Bone marrow cells were isolated from FVB/NJ mice and cultured in RPMI-1640 containing 10% FBS and 20 ng/ml GM-CSF. BMDCs (bone marrow derived dendritic cells) were harvested for in vitro co-culture assay on day 7 to day 10. About 3×10^5 PBM or PPM tumor cells were cultured in a 6-well plate for 24 hr. and then treated with DMSO or olaparib. […]

With `O=C(c1cc(Cc2n[nH]c(=O)c3ccccc23)ccc1F)N1CCN(C(=O)C2CC2)CC1` [olaparib, Olaparib] the “progression of Brca-proficient PPM tumors” value [1] was “little effect and not”, the “cytosolic dsDNAs and micronuclei” value (PPM cells) was “not” and the “p-TBK1+p-IRF3+ and IFN-β (STING pathway activation) in wild-type BMDCs” value [2] was “Increased; also recorded: activation of STING pathway occurred”.
